What was measured:
[1] = biological target: T1, IKKα (Homo sapiens, UniProt O15111); assay: in-house DELFIA kinase assay, IKKα; type: biochemical
T1 sequence (O15111 1-745): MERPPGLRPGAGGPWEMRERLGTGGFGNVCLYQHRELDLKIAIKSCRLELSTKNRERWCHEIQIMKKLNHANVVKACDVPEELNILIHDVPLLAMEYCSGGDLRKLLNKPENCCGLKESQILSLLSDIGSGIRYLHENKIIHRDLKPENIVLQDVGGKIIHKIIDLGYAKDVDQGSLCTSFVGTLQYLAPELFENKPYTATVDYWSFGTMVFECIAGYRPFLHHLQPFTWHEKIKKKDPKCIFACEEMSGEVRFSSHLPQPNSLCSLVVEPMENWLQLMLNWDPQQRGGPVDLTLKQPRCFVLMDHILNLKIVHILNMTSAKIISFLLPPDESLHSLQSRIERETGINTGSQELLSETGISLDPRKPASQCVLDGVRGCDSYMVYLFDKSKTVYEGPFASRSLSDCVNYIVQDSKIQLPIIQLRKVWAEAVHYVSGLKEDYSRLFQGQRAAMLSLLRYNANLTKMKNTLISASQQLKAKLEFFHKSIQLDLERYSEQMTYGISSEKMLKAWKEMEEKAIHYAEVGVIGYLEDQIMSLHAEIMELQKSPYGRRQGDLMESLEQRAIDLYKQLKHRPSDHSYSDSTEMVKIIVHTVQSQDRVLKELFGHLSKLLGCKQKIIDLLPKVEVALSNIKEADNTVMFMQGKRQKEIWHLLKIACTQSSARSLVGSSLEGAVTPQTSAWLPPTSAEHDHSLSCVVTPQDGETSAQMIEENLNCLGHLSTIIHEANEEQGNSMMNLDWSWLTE
Description: To examine the pyrrolo[2,3 -b]pyridines as an alternative scaffold, we adopted the AIPP core because it had similar dimensions to 1 SU909, with HBD/HBA motifs positioned at the scaffold extremities to interact with both the hinge region and the G-loop wall of IKKα, a rationale we had previously proposed as the basis for imparting selectivity. A preliminary set of AIPP derivatives was designed to explore its utility as an IKK-targeting scaffold, whilst incorporating additional functionality through which to introduce selectivity for the IKKα isoform (2-4 SU1087, SU1266 and SU1253; FIG. 3). This was achieved by initially adopting two different approaches: either appending a hydrophobic moiety to the pyrrolo[2,3 -b]pyridine motif as a fused form to afford the tricyclic derivatives 2 and 3 SU1266 and SU1087, or as a phenyl substituent to introduce flexibility with the central pyrrolo[2,3 -b]pyridine moiety in 4 SU1253 . […] The pyrrolo[2,3 -b]pyridine was bound to the hinge region in the classical HBA/HBD motif with the GK+3 NH and C═O backbone, whilst the aminoindazole projected towards the top of the pocket to interact with the G-loop (FIG. 4A). […] In both isoforms, the 2 -phenyl moiety was oriented out from the hinge towards the exposed solvent area.

[2] = biological target: T2, IKKβ (Homo sapiens, UniProt O14920); assay: in-house DELFIA kinase assay, IKKβ; type: biochemical
T2 sequence (O14920 1-756): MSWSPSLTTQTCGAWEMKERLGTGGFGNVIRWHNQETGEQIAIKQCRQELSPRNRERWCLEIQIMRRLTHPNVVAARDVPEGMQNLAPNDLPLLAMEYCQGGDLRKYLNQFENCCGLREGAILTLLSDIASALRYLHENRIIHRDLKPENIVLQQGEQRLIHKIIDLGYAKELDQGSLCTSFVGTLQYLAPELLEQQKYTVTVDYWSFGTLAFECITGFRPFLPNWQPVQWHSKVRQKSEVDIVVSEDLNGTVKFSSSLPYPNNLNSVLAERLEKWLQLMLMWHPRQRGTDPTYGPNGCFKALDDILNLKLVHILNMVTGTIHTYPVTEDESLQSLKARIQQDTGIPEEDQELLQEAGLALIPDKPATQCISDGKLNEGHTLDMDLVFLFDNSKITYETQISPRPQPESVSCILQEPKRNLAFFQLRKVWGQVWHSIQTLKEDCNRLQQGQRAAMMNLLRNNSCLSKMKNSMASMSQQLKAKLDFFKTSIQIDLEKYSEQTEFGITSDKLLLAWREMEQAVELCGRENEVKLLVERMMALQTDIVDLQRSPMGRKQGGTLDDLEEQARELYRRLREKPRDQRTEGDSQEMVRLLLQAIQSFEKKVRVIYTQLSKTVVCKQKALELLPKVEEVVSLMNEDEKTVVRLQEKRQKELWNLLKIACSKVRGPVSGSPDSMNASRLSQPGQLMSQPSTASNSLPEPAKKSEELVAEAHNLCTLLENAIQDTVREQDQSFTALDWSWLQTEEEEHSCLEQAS
Description: To examine the pyrrolo[2,3 -b]pyridines as an alternative scaffold, we adopted the AIPP core because it had similar dimensions to 1 SU909, with HBD/HBA motifs positioned at the scaffold extremities to interact with both the hinge region and the G-loop wall of IKKα, a rationale we had previously proposed as the basis for imparting selectivity. A preliminary set of AIPP derivatives was designed to explore its utility as an IKK-targeting scaffold, whilst incorporating additional functionality through which to introduce selectivity for the IKKα isoform (2-4 SU1087, SU1266 and SU1253; FIG. 3). This was achieved by initially adopting two different approaches: either appending a hydrophobic moiety to the pyrrolo[2,3 -b]pyridine motif as a fused form to afford the tricyclic derivatives 2 and 3 SU1266 and SU1087, or as a phenyl substituent to introduce flexibility with the central pyrrolo[2,3 -b]pyridine moiety in 4 SU1253 .

Row | Ki [1] | IKKβ inhibition, in words [2] | Ki [2] | SMILES
1 | 9 nM | good IKKβ inhibition | 29 nM | Nc1n[nH]c2ccc(-c3ccnc4[nH]c(-c5cccc(OCCN6CCOCC6)c5)cc34)cc12 [5y SU1336, 5-(2-(3-(2 -Morpholinoethoxy)phenyl)-1 H-pyrrolo[2,3-b]pyridin-4-yl)-1 H-indazol-3-amine]
2 | 43 nM |  | 166 nM | COc1ccc(COc2cccc(-c3cc4c(-c5ccc6[nH]nc(N)c6c5)ccnc4[nH]3)c2)cc1 [5z SU1363, 5-(2-(3-((4 -Methoxybenzyl)oxy)phenyl)-1 H-pyrrolo[2,3-b]pyridin-4-yl)-1 H-indazol-3-amine]
3 | 59 nM |  | 5030 nM | Nc1n[nH]c2ccc(-c3ccnc4[nH]c(-c5cc(F)cc(OCc6ccccc6)c5)cc34)cc12 [6a SU1371, 5-(2-(3-(Benzyloxy)-5-fluorophenyl)-1 H-pyrrolo[2,3-b]pyridin-4-yl)-1 H-indazol-3-amine]
4 | 29 nM |  | 1220 nM | COCCOCc1cc(OCc2ccccc2)cc(-c2cc3c(-c4ccc5[nH]nc(N)c5c4)ccnc3[nH]2)c1 [6b SU1358, 5-(2-(3-(Benzyloxy)-5-((2-methoxyethoxy)methyl)phenyl)-1 H-pyrrolo[2,3-b]pyridin-4-yl)-1 H-indazol-3-amine]
5 | 26 nM |  | 1530 nM | COCCNc1cc(OCc2ccccc2)cc(-c2cc3c(-c4ccc5[nH]nc(N)c5c4)ccnc3[nH]2)c1 [6c SU1365, 5-(2-(3-(Benzyloxy)-5-((2-methoxyethyl)amino)phenyl)-1 H-pyrrolo[2,3-b]pyridin-4-yl)-1 H-indazol-3-amine]
6 | 21 nM |  | 1550 nM | Nc1n[nH]c2ccc(-c3ccnc4[nH]c(-c5cncc(OCc6ccccc6)c5)cc34)cc12 [6e SU1337, 5-(2-(5-(Benzyloxy)pyridin-3-yl)-1 H-pyrrolo[2,3-b]pyridin-4-yl)-1 H-indazol-3-amine]
7 | 33 nM |  | 503 nM | Nc1n[nH]c2ccc(-c3ccnc4[nH]c(-c5cc(F)nc(CNc6ccccc6)c5)cc34)cc12 [6f SU1394, 5-(2-(2 -Fluoro-6-((phenylamino)methyl)pyridin-4-yl)-1 H-pyrrolo[2,3-b]pyridin-4-yl)-1 H-indazol-3-amine]
8 | 5 nM |  | 1180 nM | Nc1n[nH]c2ccc(-c3ccnc4[nH]c(-c5ccnc(SCc6ccccc6)c5)cc34)cc12 [6h SU1615, 5-(2-(2-(Benzylthio)pyridin-4-yl)-1 H-pyrrolo[2,3-b]pyridin-4-yl)-1 H-indazol-3-amine]
9 | 127 nM |  | 3000 nM | Nc1n[nH]c2ccc(-c3ccnc4[nH]c(-c5cc(F)nc(SCc6ccccc6)c5)cc34)cc12 [6i SU1380, 5-(2-(2-(Benzylthio)-6-fluoropyridin-4-yl)-1 H-pyrrolo[2,3-b]pyridin-4-yl)-1 H-indazol-3-amine]
10 | 25 nM |  | 2300 nM | Nc1n[nH]c2ccc(-c3ccnc4[nH]c(-c5cc(OCc6ccccc6)ccn5)cc34)cc12 [6j SU1602, 5-(2-(4-(Benzyloxy)pyridin-2-yl)-1 H-pyrrolo[2,3-b]pyridin-4-yl)-1 H-indazol-3-amine]
11 | 42 nM |  | 1600 nM | Nc1n[nH]c2ccc(-c3ccnc4[nH]c(-c5ccnc(OCCc6ccccc6)c5)cc34)cc12 [6l SU1621, 5-(2-(2 -Phenethoxypyridin-4-yl)-1 H-pyrrolo[2,3-b]pyridin-4-yl)-1 H-indazol-3-amine]

Source: US20260315487A1, “IKK-ALPHA INHIBITORS” (Cancer Research Technology Limited, priority 2023, published 2026)
